# Measurements taken from patent US20170100383A1, “TOPICAL FORMULATIONS FOR PREVENTING SKIN INFECTION” (Practical Solution, Inc., priority 2015, published 2017).
# Read-outs that look alike come from different tables or passages of the source.
# How the values were obtained:
# Format in all cases: cell-based
# Details in all cases: 48 h
# [1] = system: Bacillus subtilis ATCC9372
# Method: (§1) Staphyloccocus aureus strain ATCC 6538, Bacillus subtilis ATCC9372 or Candida albicans ATCC10231 each (0.1 ml of a bacterial suspension having 10^8 cfu/ml bacteria) were inoculated into the mixture. […] Test tubes containing the mixtures were placed in a 37° C. incubator and incubated for 48 hours. The concentration of bacterial cells in each test tube was measured. The inhibitory rates were calculated as below:
# (§2) [(Positive control average colony count−Test average colony count)/Positive control average colony count]×100%
# (§3) Positive controls are the tubes having broth and microorganisms but no antimicrobial agents.
# [2] = system: Staphylococcus aureus ATCC6538; assay: Broth microdilution inhibitory rate (MIC assay) against Staphylococcus aureus
# Method: as §1, §2, §3
# [3] = system: Candida albicans ATCC10231; assay: Broth microdilution inhibitory rate (MIC assay) against Candida albicans
# Method: as §1, §2, §3
# [4] = dilution 1* of initial concentration (CHG 5 g/L, CPC 0.5 g/L), 37° C.
# [5] = dilution 1/10 of initial concentration (CHG 5 g/L, CPC 0.5 g/L)
# [6] = dilution 1/100 of initial concentration (CHG 5 g/L, CPC 0.5 g/L)
# [7] = dilution 1/1000 of initial concentration (CHG 5 g/L, CPC 0.5 g/L)
# [8] = dilution 1/2000 of initial concentration (CHG 5 g/L, CPC 0.5 g/L)
# [9] = dilution 1/4000 of initial concentration (CHG 5 g/L, CPC 0.5 g/L)
# [10] = dilution 1/8000 of initial concentration (CHG 5 g/L, CPC 0.5 g/L)
compound,measurement,setting,value
"N=C(NCCCCCCNC(=N)NC(=N)Nc1ccc(Cl)cc1)NC(=N)Nc1ccc(Cl)cc1.O=C(O)[C@H](O)[C@@H](O)[C@H](O)[C@H](O)CO.O=C(O)[C@H](O)[C@@H](O)[C@H](O)[C@H](O)CO [CHG, chlorhexidine digluconate]",Anti-microbial activity (inhibitory rate),[1]; [4],100%
same,Anti-microbial activity (inhibitory rate),[1]; [5],100%
same,Anti-microbial activity (inhibitory rate),[1]; [6],100%
same,Anti-microbial activity (inhibitory rate),[1]; [7],100%
same,Anti-microbial activity (inhibitory rate),[1]; [8],100%
same,Anti-microbial activity (inhibitory rate),[1]; [9],100%
same,Anti-microbial activity (inhibitory rate),[1]; [10],99.99%
same,Anti-microbial activity (inhibitory rate),"[1]; dilution 1/16000 of initial concentration (CHG 5 g/L, CPC 0.5 g/L)",99.50%
same,Anti-microbial activity (inhibitory rate),"[1]; dilution 1/32000 of initial concentration (CHG 5 g/L, CPC 0.5 g/L)",90.83%
same,Anti-microbial activity (inhibitory rate),[2]; [4],100%
same,Anti-microbial activity (inhibitory rate),[2]; [5],100%
same,Anti-microbial activity (inhibitory rate),[2]; [6],100%
same,Anti-microbial activity (inhibitory rate),[2]; [7],100%
same,Anti-microbial activity (inhibitory rate),[2]; [8],100%
same,Anti-microbial activity (inhibitory rate),[2]; [9],100%
same,Anti-microbial activity (inhibitory rate),[2]; [10],78.43%
same,Anti-microbial activity (inhibitory rate),[3]; [4],100%
same,Anti-microbial activity (inhibitory rate),[3]; [5],100%
same,Anti-microbial activity (inhibitory rate),[3]; [6],100%
same,Anti-microbial activity (inhibitory rate),[3]; [7],97.76%
same,Anti-microbial activity (inhibitory rate),[3]; [8],93.92%
same,Anti-microbial activity (inhibitory rate),[3]; [9],90.41%
